Data published in patent US20050070461A1, “Means and methods for altering the motility of the gastrointestinal tract” (priority 2002, published 2005).

Legend:
[1] = test system: murine model for postoperative ileus (gastroparesis after intestinal manipulation); experiment: Gastric emptying by scintigraphic imaging after intestinal manipulation (murine model for postoperative ileus); assay type: in vivo, mice; conditions: for gastric emptying rate k / half-emptying time: MAb pre-operative, hexamethonium or guanethidine postoperative injection
[2] = test system: MPO-containing leukocytes in ileal muscularis; experiment: Leukocyte recruitment / MPO activity in ileal muscularis after intestinal manipulation; assay type: in vivo, mice
[3] = test system: gastric emptying in control mice; experiment: Gastric emptying in control mice given the anesthetics

For `C[N+](C)(C)CCCCCC[N+](C)(C)C` [hexamethonium], which gastroparesis ([1]; 6 hours after IM) is on record?
The gastroparesis was “reversed the gastroparesis partially”.

What about the “gastric emptying rate k” value ([1]; 6 hours after IM) of the same compound?
Its value is “normalized”.

And the half-emptying time ([1]; 6 hours after IM)?
Its half-emptying time is “normalized”.

What about the development of gastroparesis ([1]; 24 hours after IM) of the same compound?
The development of gastroparesis was “completely”.

What about the “gastric emptying rate k” value ([1]; 24 hours after IM) of the same compound?
The value was “normalized”.

What about the half-emptying time ([1]; 24 hours after IM) of the same compound?
The half-emptying time was “normalized”.

And the development of gastroparesis ([1]; mice, time not stated)?
Its development of gastroparesis is “capable of preventing the development of gastroparesis”.

What about the “leukocyte influx / recruitment in ileal muscularis (MPO-staining cells)” value ([2]; 24 hours after IM) of the same compound?
Its value is “did not affect”.

And the “amount of MPO activity in muscularis homogenates” value ([2]; 24 hours after surgery)?
The value was “did not affect”.

How did the gastric emptying ([3]; xylazine 20 mg/kg in combination ketamine 100 mg/kg) turn out when `CNC1(c2ccccc2Cl)CCCCC1=O` (stereo not shown) [ketamine] was run?
The gastric emptying was “did not alter gastric emptying”.

Which development of gastroparesis ([1]; 24 hours after IM) does the source give for `CN1CCC(=C2c3ccccc3CC(=O)c3sccc32)CC1` [ketotifen] here?
Its development of gastroparesis is “could be prevented”.

And the “decrease of postoperative recruitment of MPO-containing leukocytes compared to vehicle” value ([2]; 24 hours after IM, ketotifen 10 mg/kg p.o. for five days prior to surgery)?
Its value is 45%.

`Cc1cccc(C)c1N=C1NCCCS1` [xylazine] was tested. Which gastric emptying ([3]; xylazine 20 mg/kg used alone) did it give?
The gastric emptying was “did not alter gastric emptying”.
